Source: patent publication US20110237528A1, “COMPOSITIONS AND METHODS COMPRISING IMIDAZOLE AND TRIAZOLE DERIVATIVES” (INSTITUTE FOR ONEWORLD HEALTH, priority 2008, published 2011)

What was measured:
[1] = target: T1, CFTR in the CHO-CFTR cell line (Homo sapiens, UniProt P13569); assay: CHO-CFTR assay (FLIPR assay, same conditions as T84 assay); type: cell-based; conditions: average of at least 2 runs unless marked n = 1
T1 construct: expressed in transfected cells; host or cells: CHO (CHO-CFTR cell line)
T1 sequence (P13569 whole entry): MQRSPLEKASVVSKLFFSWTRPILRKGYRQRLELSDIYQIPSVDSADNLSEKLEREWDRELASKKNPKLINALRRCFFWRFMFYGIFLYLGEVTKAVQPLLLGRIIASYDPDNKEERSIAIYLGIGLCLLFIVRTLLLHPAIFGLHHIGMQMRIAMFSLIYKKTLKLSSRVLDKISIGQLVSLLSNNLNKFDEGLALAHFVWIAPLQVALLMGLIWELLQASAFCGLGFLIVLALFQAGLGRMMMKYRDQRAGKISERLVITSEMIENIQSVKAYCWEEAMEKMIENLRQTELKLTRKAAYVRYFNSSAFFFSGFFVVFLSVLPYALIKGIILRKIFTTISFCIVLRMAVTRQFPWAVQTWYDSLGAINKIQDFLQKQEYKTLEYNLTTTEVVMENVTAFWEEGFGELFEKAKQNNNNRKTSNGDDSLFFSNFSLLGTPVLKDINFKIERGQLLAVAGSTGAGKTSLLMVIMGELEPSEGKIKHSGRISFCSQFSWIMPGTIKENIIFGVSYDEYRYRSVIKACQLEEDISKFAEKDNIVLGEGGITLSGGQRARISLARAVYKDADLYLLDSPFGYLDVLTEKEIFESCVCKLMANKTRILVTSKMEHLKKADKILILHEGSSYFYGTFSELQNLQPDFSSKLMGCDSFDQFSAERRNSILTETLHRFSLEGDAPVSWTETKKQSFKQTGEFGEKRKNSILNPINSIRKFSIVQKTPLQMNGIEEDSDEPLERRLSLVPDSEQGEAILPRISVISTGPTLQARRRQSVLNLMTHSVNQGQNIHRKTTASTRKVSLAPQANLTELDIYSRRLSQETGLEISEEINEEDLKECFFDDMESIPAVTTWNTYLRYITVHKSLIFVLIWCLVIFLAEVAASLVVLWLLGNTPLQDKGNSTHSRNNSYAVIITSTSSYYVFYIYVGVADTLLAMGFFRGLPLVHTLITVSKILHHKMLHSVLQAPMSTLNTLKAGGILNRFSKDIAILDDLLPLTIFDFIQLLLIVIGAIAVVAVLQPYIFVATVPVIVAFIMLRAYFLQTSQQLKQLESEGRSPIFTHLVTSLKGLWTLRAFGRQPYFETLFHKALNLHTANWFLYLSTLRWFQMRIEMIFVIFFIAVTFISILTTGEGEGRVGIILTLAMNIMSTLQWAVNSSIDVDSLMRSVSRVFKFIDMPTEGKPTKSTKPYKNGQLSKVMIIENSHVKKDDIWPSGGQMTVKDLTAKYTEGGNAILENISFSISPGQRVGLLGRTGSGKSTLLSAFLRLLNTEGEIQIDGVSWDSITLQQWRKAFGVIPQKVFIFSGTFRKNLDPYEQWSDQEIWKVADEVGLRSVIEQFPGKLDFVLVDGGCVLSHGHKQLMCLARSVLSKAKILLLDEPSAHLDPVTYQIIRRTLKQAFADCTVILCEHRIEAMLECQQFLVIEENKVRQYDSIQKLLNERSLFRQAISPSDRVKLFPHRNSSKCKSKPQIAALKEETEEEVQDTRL

[2] = tested on: cholera toxin (CTX)-induced net fluid secretion in small intestine loops; parameters: species or system mice (CD1 strain); conditions: mouse, in vivo
[3] = target: T2, CFTR channel in human colonic T84 cells (Homo sapiens, UniProt P13569); assay: T84 assay (FLIPR membrane potential dye, forskolin/IBMX-stimulated); type: cell-based; conditions: average of at least 2 runs unless marked n = 1
T2 construct: host or cells: T84 human colonic cells
T2 sequence (P13569 whole entry): as above
Description: For example, Human colonic T84 cells can be acquired from the European Collection of Cell Cultures (ECACC) and grown in standard culture conditions as described by the supplier. On the day before assay 25,000 T84 cells per well are plated into standard black walled, clear bottom 384-well assay plates in standard growth medium consisting of DMEM:F12 with 10% FBS and incubated overnight. […] T84 cells are incubated with the FLIPR Red membrane potential dye for 45 minutes in the presence and absence of test compound before being transferred to a commercially available fluorescence imaging plate reader (FLIPR384, Molecular Devices Corporation). Fluorescence levels are monitored continuously every second for 150 seconds; after an initial 10 second baseline, CFTR channel activity is stimulated through the addition of 10 μM forskolin in the presence of 100 μM of the phosphodiesterase inhibitor iso-butyl-methylxanthine (IBMX). […] CFTR channel opening causes chloride ion efflux and subsequent depolarization of the cells, which is measured by an increase in fluorescence. CFTR inhibitor compounds prevent cell depolarization and the associated increase in fluorescence. […]

| SMILES | IC50 [1] | also measured |
| --- | --- | --- |
| CC(C)(C)c1ccc(CN(CCOCCOCCOCCOCCOCCOCc2ccccc2)C(=O)c2ncn(-c3cc(Cl)c(O)c(Cl)c3)n2)cc1 [Compound 116, N-(4-tert-butylbenzyl)-1-(3,5-dichloro-4-hydroxyphenyl)-N-(1-phenyl-2,5,8,11,14,17-hexaoxanonadecan-19-yl)-1H-1,2,4-triazole-3-carboxamide] | ≥ 50 µM |  |
| O=C(NCc1ccc(Oc2ccc(F)c(C(F)(F)F)c2)cc1)c1ncn(-c2cc(Cl)c(O)c(Cl)c2)n1 [Compound 67, 1-(3,5-dichloro-4-hydroxyphenyl)-N-(4-(4-fluoro-3-(trifluoromethyl)phenoxy)benzyl)-1H-1,2,4-triazole-3-carboxamide] |  | % inhibition @ 100 μg dose (closed loop % inhibition) [2]: 88.2% |
| O=C(NCCC(c1ccccc1)c1ccccc1)c1ncn(-c2cc(Cl)c(O)c(Cl)c2)n1 [Compound 31, 1-(3,5-dichloro-4-hydroxyphenyl)-N-(3,3-diphenylpropyl)-1H-1,2,4-triazole-3-carboxamide] |  | % inhibition @ 100 μg dose (closed loop % inhibition) [2]: 45.1% |
| O=C(NCc1ccc(Oc2ccccc2)cc1)c1ncn(-c2cc(Cl)c(O)c(Cl)c2)n1 [Compound 49, 1-(3,5-dichloro-4-hydroxyphenyl)-N-(4-phenoxybenzyl)-1H-1,2,4-triazole-3-carboxamide] |  | % inhibition @ 100 μg dose (closed loop % inhibition) [2]: 42.3% |
| CC(C)(C)CCN(Cc1cccc(OC(F)(F)F)c1)C(=O)c1ncn(-c2cc(Cl)c(O)c(Cl)c2)n1 [Compound 77, 1-(3,5-dichloro-4-hydroxyphenyl)-N-(3,3-dimethylbutyl)-N-(3-(trifluoromethoxy)benzyl)-1H-1,2,4-triazole-3-carboxamide] | ≥ 50 µM |  |
| O=C(NC(c1ccccc1)c1ccccc1)c1ncn(-c2cc(Cl)c(O)c(Cl)c2)n1 [Compound 2, N-benzhydryl-1-(3,5-dichloro-4-hydroxyphenyl)-1H-1,2,4-triazole-3-carboxamide] |  | % inhibition @ 100 μg dose (closed loop % inhibition) [2]: 42.9% |
| CON(Cc1ccc(C(C)C)cc1)C(=O)c1ncn(-c2cc(Cl)c(O)c(Cl)c2)n1 [Compound 128, 1-(3,5-dichloro-4-hydroxyphenyl)-N-(4-isopropylbenzyl)-N-methoxy-1H-1,2,4-triazole-3-carboxamide] | ≥ 50 µM |  |
| COCCOCCOCCOCCOCCN(Cc1ccc(C(C)(C)C)cc1)C(=O)c1ncn(-c2cc(Cl)c(O)c(Cl)c2)n1 [Compound 118, N-(4-tert-butylbenzyl)-1-(3,5-dichloro-4-hydroxyphenyl)-N-(2,5,8,11,14-pentaoxahexadecan-16-yl)-1H-1,2,4-triazole-3-carboxamide] | ≥ 50 µM |  |
| COCCOCCOCCOCCOCCOCCOCCOCCON(Cc1ccc(Oc2ccccc2)cc1)C(=O)c1ncn(-c2cc(Cl)c(O)c(Cl)c2)n1 [Compound 121, N-(2,5,8,11,14,17,20,23-octaoxapentacosan-25-yloxy)-1-(3,5-dichloro-4-hydroxyphenyl)-N-(4-phenoxybenzyl)-1H-1,2,4-triazole-3-carboxamide] | ≥ 50 µM |  |
| COCCOCCOCCOCCN(Cc1cccc(OC(F)(F)F)c1)C(=O)c1ncn(-c2cc(Cl)c(O)c(Cl)c2)n1 [Compound 115, 1-(3,5-dichloro-4-hydroxyphenyl)-N-(2,5,8,11-tetraoxatridecan-13-yl)-N-(3-(trifluoromethoxy)benzyl)-1H-1,2,4-triazole-3-carboxamide] | ≥ 50 µM |  |
| O=C(NCc1ccc(Cl)c(Cl)c1)c1ncn(-c2cc(Cl)c(O)c(Cl)c2)n1 [Compound 37, 1-(3,5-dichloro-4-hydroxyphenyl)-N-(3,4-dichlorobenzyl)-1H-1,2,4-triazole-3-carboxamide] |  | % inhibition @ 100 μg dose (closed loop % inhibition) [2]: 76.9% |
| O=C(c1ncn(-c2cc(Cl)c(O)c(Cl)c2)n1)N(Cc1ccccc1)Cc1cccc(C(F)(F)F)c1 [Compound 85, N-benzyl-1-(3,5-dichloro-4-hydroxyphenyl)-N-(3-(trifluoromethyl)benzyl)-1H-1,2,4-triazole-3-carboxamide] | ≥ 50 µM |  |
| COCCOCCOCCON(Cc1ccc(Oc2ccccc2)cc1)C(=O)c1ncn(-c2cc(Cl)c(O)c(Cl)c2)n1 [Compound 123, 1-(3,5-dichloro-4-hydroxyphenyl)-N-(2-(2-(2-methoxyethoxy)ethoxy)ethoxy)-N-(4-phenoxybenzyl)-1H-1,2,4-triazole-3-carboxamide] | ≥ 50 µM |  |
| COCCOCCOCCN(Cc1cccc(OC(F)(F)F)c1)C(=O)c1ncn(-c2cc(Cl)c(O)c(Cl)c2)n1 [Compound 113, 1-(3,5-dichloro-4-hydroxyphenyl)-N-(2-(2-(2-methoxyethoxy)ethoxy)ethyl)-N-(3-(trifluoromethoxy)benzyl)-1H-1,2,4-triazole-3-carboxamide] | ≥ 50 µM |  |
| COCCOCCOCCOCCN(Cc1ccc(Cl)c(Cl)c1)C(=O)c1ncn(-c2cc(Cl)c(O)c(Cl)c2)n1 [Compound 111, 1-(3,5-dichloro-4-hydroxyphenyl)-N-(3,4-dichlorobenzyl)-N-(2,5,8,11-tetraoxatridecan-13-yl)-1H-1,2,4-triazole-3-carboxamide] | ≥ 50 µM |  |
| COCCOCCOCCOCCN(Cc1ccc(C(C)(C)C)cc1)C(=O)c1ncn(-c2cc(Cl)c(O)c(Cl)c2)n1 [Compound 120, N-(4-tert-butylbenzyl)-1-(3,5-dichloro-4-hydroxyphenyl)-N-(2,5,8,11-tetraoxatridecan-13-yl)-1H-1,2,4-triazole-3-carboxamide] | ≥ 50 µM |  |
| CN(C)c1cccc(Oc2ccc(CNC(=O)c3ncn(-c4cc(Cl)c(O)c(Cl)c4)n3)cc2)c1 [Compound 64, 1-(3,5-dichloro-4-hydroxyphenyl)-N-(4-(3-(dimethylamino)phenoxy)benzyl)-1H-1,2,4-triazole-3-carboxamide] |  | IC50 [3]: ≥ 50 µM |
| Oc1c(Cl)cc(-n2cnc(C(O)(c3cc(F)cc(F)c3)c3cc(F)cc(F)c3)n2)cc1Cl [Compound 52, 4-(3-(bis(3,5-difluorophenyl)(hydroxy)methyl)-1H-1,2,4-triazol-1-yl)-2,6-dichlorophenol] |  | % inhibition @ 100 μg dose (closed loop % inhibition) [2]: 55.3% |
| CC(C)c1ccc(CC(NC(=O)c2ncn(-c3cc(Cl)c(O)c(Cl)c3)n2)C(=O)C(C)(C)C)cc1 (stereo not shown) [Compound 134, 1-(3,5-dichloro-4-hydroxyphenyl)-N-(1-(4-isopropylphenyl)-4,4-dimethyl-3-oxopentan-2-yl)-1H-1,2,4-triazole-3-carboxamide] |  | % inhibition @ 100 μg dose (closed loop % inhibition) [2]: 71.7% |
| C=CCN(Cc1ccc(C(C)C)cc1)C(=O)c1ncn(-c2cc(Cl)c(O)c(Cl)c2)n1 [Compound 101, N-allyl-1-(3,5-dichloro-4-hydroxyphenyl)-N-(4-isopropylbenzyl)-1H-1,2,4-triazole-3-carboxamide] | ≥ 50 µM |  |
| COCCOCCOCCOCCOCCOCCOCCOCCN(Cc1ccc(C(C)(C)C)cc1)C(=O)c1ncn(-c2cc(Cl)c(O)c(Cl)c2)n1 [Compound 117, N-(4-tert-butylbenzyl)-1-(3,5-dichloro-4-hydroxyphenyl)-N-(2,5,8,11,14,17,20,23-octaoxapentacosan-25-yl)-1H-1,2,4-triazole-3-carboxamide] | ≥ 50 µM |  |
| Cc1noc(C)c1CCNC(=O)c1ncn(-c2cc(Cl)c(O)c(Cl)c2)n1 [Compound 74, 1-(3,5-dichloro-4-hydroxyphenyl)-N-(2-(3,5-dimethylisoxazol-4-yl)ethyl)-1H-1,2,4-triazole-3-carboxamide] | ≥ 50 µM |  |
| O=C(c1ncn(-c2cc(Cl)c(O)c(Cl)c2)n1)N(Cc1ccccc1)Cc1cccc(OC(F)(F)F)c1 [Compound 84, N-benzyl-1-(3,5-dichloro-4-hydroxyphenyl)-N-(3-(trifluoromethoxy)benzyl)-1H-1,2,4-triazole-3-carboxamide] | ≥ 50 µM |  |
| CC(C)(C)CCN(Cc1cccc(C(F)(F)F)c1)C(=O)c1ncn(-c2cc(Cl)c(O)c(Cl)c2)n1 [Compound 79, 1-(3,5-dichloro-4-hydroxyphenyl)-N-(3,3-dimethylbutyl)-N-(3-(trifluoromethyl)benzyl)-1H-1,2,4-triazole-3-carboxamide] | ≥ 50 µM |  |
| COCCOCCOCCOCCON(Cc1ccc(Oc2ccccc2)cc1)C(=O)c1ncn(-c2cc(Cl)c(O)c(Cl)c2)n1 [Compound 122, N-(2,5,8,11-tetraoxatridecan-13-yloxy)-1-(3,5-dichloro-4-hydroxyphenyl)-N-(4-phenoxybenzyl)-1H-1,2,4-triazole-3-carboxamide] | ≥ 50 µM |  |
